Results taken from article PMC11864979, “First-in-class ultralong-target-residence-time p38α inhibitors as a mitosis-targeted therapy for colorectal cancer” (Nature Cancer, 2025).
Read-outs that look alike come from different tables or passages of the source.

Key:
340 wild-type kinases [1] = biological target: T1, 340 wild-type kinases (Homo sapiens, UniProt P21709); assay: selectivity profiling in a panel of 340 wild-type kinases (Reaction Biology Europe); format: binding
T1 construct: purchased Reaction Biology Europe
T1 sequence (P21709 26-976): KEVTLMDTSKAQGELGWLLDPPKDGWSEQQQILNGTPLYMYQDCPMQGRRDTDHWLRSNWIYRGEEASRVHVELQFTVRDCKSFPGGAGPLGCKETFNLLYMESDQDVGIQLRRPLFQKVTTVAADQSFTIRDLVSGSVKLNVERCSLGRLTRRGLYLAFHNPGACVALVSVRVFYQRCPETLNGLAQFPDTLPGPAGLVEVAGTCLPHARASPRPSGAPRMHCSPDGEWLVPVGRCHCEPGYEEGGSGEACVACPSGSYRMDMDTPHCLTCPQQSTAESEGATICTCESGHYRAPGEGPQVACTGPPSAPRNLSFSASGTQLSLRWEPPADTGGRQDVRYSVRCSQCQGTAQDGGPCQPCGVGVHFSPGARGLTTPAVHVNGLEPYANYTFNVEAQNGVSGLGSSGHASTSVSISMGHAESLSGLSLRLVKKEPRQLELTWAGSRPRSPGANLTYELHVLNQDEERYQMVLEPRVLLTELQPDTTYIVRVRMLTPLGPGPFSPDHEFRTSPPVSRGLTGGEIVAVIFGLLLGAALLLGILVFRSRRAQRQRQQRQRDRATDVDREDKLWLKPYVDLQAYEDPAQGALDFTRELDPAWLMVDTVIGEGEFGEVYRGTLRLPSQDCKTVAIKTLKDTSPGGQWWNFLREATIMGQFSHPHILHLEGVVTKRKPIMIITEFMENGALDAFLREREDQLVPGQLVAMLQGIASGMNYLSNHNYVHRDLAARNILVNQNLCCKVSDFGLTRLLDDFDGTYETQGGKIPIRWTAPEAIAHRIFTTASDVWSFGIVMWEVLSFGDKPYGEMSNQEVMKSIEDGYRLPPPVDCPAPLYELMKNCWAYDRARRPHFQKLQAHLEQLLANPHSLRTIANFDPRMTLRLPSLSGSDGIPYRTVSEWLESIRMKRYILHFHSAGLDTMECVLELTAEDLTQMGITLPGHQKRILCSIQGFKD

340 wild-type kinases [2] = biological target: T2, 340 wild-type kinases (Homo sapiens, UniProt Q8TDC3); assay: as above; format: binding
T2 construct: purchased Reaction Biology Europe
T2 sequence (Q8TDC3 1-778): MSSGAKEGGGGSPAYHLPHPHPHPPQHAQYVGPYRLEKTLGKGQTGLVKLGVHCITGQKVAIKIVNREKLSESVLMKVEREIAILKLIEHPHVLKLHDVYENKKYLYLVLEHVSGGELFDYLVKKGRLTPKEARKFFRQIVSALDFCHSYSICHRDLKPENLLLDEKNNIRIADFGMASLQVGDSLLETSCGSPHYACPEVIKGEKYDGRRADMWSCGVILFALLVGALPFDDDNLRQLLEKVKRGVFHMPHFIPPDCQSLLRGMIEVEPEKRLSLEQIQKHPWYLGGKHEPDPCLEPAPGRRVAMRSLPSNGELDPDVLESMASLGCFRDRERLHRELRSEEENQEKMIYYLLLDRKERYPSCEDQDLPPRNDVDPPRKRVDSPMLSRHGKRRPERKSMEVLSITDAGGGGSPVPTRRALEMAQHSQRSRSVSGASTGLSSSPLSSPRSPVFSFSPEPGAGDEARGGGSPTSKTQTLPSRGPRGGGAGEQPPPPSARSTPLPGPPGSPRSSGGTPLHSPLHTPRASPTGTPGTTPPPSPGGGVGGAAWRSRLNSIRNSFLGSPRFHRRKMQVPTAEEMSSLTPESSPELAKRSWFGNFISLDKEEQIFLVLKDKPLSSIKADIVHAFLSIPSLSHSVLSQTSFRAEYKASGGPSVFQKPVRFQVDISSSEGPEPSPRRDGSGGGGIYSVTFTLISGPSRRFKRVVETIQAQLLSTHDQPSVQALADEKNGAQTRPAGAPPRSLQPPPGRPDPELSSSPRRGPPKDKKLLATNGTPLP

CNC(=O)c1ccc2c(c1)C(=O)c1ccc(Nc3ccc(F)c(NC(=O)C4CC4)c3)cc1CC2 [Compound 2015]
remaining activity at 0.2 µM (340 wild-type kinases [1]; 0.2 µM 2015, read-out: EPHA1 residual activity): 87.2% | remaining activity at 1 µM (340 wild-type kinases [1]; 1 µM 2015, read-out: EPHA1 residual activity): 82.1% | remaining activity at 0.2 µM (340 wild-type kinases [1]; EPHA1, 0.2 µM, read-out: residual activity): 87.2% | remaining activity at 1 µM (340 wild-type kinases [1]; EPHA1, 1 µM, read-out: residual activity): 82.1% | remaining activity at 0.2 µM (340 wild-type kinases [2]; 0.2 µM 2015, read-out: BRSK1 residual activity): 99.5% | remaining activity at 1 µM (340 wild-type kinases [2]; 1 µM 2015, read-out: BRSK1 residual activity): 90.5% | remaining activity at 0.2 µM (340 wild-type kinases [2]; BRSK1, 0.2 µM, read-out: residual activity): 99.5% | remaining activity at 1 µM (340 wild-type kinases [2]; BRSK1, 1 µM, read-out: residual activity): 90.5%
